# Literature values, collected in PMC11173647, “Anti-Inflammatory Activity of Pyrazolo[1,5-a]quinazolines” (Molecules, 2024).
# Columns and labels:
# Design in all cases: method as in PMID 32696514
# [1] = system: gastric ulcerogenic effects; conditions: in vivo; cited from earlier work
# 5-lipoxygenase (5-LOX) = conditions: cited from earlier work
# cyclooxygenase 2 (COX-2) = conditions: cited from earlier work
# [2] = system: carrageenan-induced paw edema; conditions: carrageenan-induced paw edema model, 10 mg/kg; cited from earlier work
structure (smiles),measurement,setting,value
COc1cc(/C=c2/c(=O)[nH]n3c(=O)c4ccccc4nc23)cc(OC)c1OC [A],gastric ulcerogenic effects,[1],did not exhibit gastric ulcerogenic effects
same,IC50,5-lipoxygenase (5-LOX),2300 nM
same,selectivity toward COX-2 versus COX-1,cyclooxygenase 2 (COX-2); COX-2 versus COX-1,about 14 fold
same,IC50,cyclooxygenase 2 (COX-2),47 nM
same,reduction of edema,[2],39%
